Reference: patent publication US7087375B1, “Method for determining the mechanism of HIV RT inhibitors” (priority 2000, dated 2006)
“And” between values parts separate entries of the source, which are not always exact repeats. Identical values can stand only once.

Columns and labels:
[1] = tested on: HXB2 site-directed mutant M41L, T215Y; type: cell-based; details: virus M41L
[2] = tested on: HXB2 site-directed mutant D67N, K70R; type: cell-based; details: virus D67N
[3] = tested on: HXB2 site-directed mutant M41L, M184V, T215Y; type: cell-based; details: virus M41L
[4] = tested on: HXB2 site-directed mutant M41L, D67N, K70R, M184V, T215Y; type: cell-based; details: virus M41L
[5] = tested on: HXB2 site-directed mutant T69S-SS; type: cell-based; details: virus T69S-SS
[6] = tested on: HXB2 site-directed mutant M41L, T69S-SS, T215Y; type: cell-based; details: virus M41L
[7] = tested on: HXB2 site-directed mutant T69S-SG; type: cell-based; details: virus T69S-SG
[8] = tested on: HXB2 site-directed mutant M41L, T69S-SG, T215Y; type: cell-based; details: virus M41L
[9] = tested on: HXB2 site-directed mutant T69S-AG; type: cell-based; details: virus T69S-AG
[10] = tested on: HXB2 site-directed mutant M41L, T69S-AG, T215Y; type: cell-based; details: virus M41L
[11] = tested on: HXB2 site-directed mutant V75T; type: cell-based; details: virus V75T
[12] = tested on: HXB2 site-directed mutant Q151M; type: cell-based; details: virus Q151M
wild type HXB2 virus = assay: HIV drug susceptibility assay (recombinant virus, MT-4 cells); details: for IC50: Human immunodeficiency virus 1, HXB2, MT4, read-out: mean IC50 for the wild type control virus

SMILES	Fold resistance in IC50 relative to HXB2 [1]	Fold resistance in IC50 relative to HXB2 [2]	Fold resistance in IC50 relative to HXB2 [3]	Fold resistance in IC50 relative to HXB2 [4]	Fold resistance in IC50 relative to HXB2 [5]	Fold resistance in IC50 relative to HXB2 [6]	Fold resistance in IC50 relative to HXB2 [7]	Fold resistance in IC50 relative to HXB2 [8]	Fold resistance in IC50 relative to HXB2 [9]	Fold resistance in IC50 relative to HXB2 [10]	Fold resistance in IC50 relative to HXB2 [11]	Fold resistance in IC50 relative to HXB2 [12]	IC50 (wild type HXB2 virus)	Virus Assay fold resistance (wild type HXB2 virus; wild type HXB2 virus (reference))
Nc1ccn([C@@H]2CS[C@H](CO)O2)c(=O)n1 [3TC, lamivudine]	1.0 fold	1.2 fold	>62 fold	>62 fold	5.0 fold	4.3 fold	2.9 fold	11.3 fold	4.2 fold	6.1 fold	3.2 fold	2.0 fold	600 nM	–
Cc1cn([C@H]2C[C@H](N=[N+]=[N-])[C@@H](CO)O2)c(=O)[nH]c1=O [AZT, zidovudine]	26 fold and 26.2 fold and 26.2 (+/−10) fold	11 fold and 11.2 fold	5.2 fold and 5.2 (+/−1.5) fold	6.4 fold and 6.4 (+/−1.5) fold	–	12 fold and 12.0 fold and 12.0 (+/−2) fold	8.1 fold and 8.1 (+/−4) fold	>96 fold	7.0 fold and 7.0 (+/−4) fold	>96 fold	1.4 fold	2.1 fold	12 nM	1.0 fold
